Test results: patent EP4371976B1, “IONIZABLE LIPIDS AND LIPID NANOPARTICLES CONTAINING THEREOF” (Certest Biotec, S.L., priority 2022, dated 2024)

Legend:
[1] = Apparent pKa of LNPs comprising the ionizable lipid (Table 6); details: standard formulation 50:10:38.5:1.5
Female BALB/c mice = assay: Firefly luciferase expression (total flux, IVIS imaging) in mice after injection of mRNA-loaded LNPs; format: in vivo; details: LNP 50:10:38.5:1.5
Procedure: For in vivo administration, mRNA comprising in the 5' to 3' direction a sequence encoding for luciferase of SEQ ID NO:1, was encapsulated into LNPs following the procedure described in Hassett, K. J. et al., "Optimization of Lipid Nanoparticles for Intramuscular Administration of mRNA Vaccines", 2019, Mol. Ther. Nucleic Acid, vol. 15, pp. 1-11. Briefly, the purified mRNAs were first diluted in sodium citrate buffer at pH=4 at a final concentration of 266 µg/ml. Separately, a mixture of the ionizable lipid of the invention:DSPC (Merk 850365P):cholesterol (Sigma C3045):DMG-PEG2000 (Cayman 33945-1) were dissolved into ethanol at the respective molar percentages of 50:10:38.5:1.5, and with a lipid-nitrogen-to-phosphate ratio (N:P) ratio of 5,5:1.
The mRNA aqueous solution was then carefully added to the ethanol solution, and the resulted solution was homogenized by pipetting up and down for 4-5 times. The resulting LNPs were immediately diluted 1:1 with Tris buffer and dialyzed overnight against Tris buffer containing 15% sucrose. The resulting LNP solution was then collected, and the encapsulated mRNA was assessed by Quant-IT® Ribogreen (Invitrogen R11490) following the manufacturer's instructions.
Female BALB/c mice (Charles River Laboratories), 8-10-week-old, weighting 18-23 g, were acclimatized to new conditions upon arrival to experimental facilities for 3-7 days. Housing conditions were room temperature 20-24 °C, humidity 50-70 %, and light intensity 60 lux with a light-dark cycle of 12 hours.
For Firefly Luciferase activity measurement in mice, LNPs produced as indicated above (ionizable lipid:helper lipid: sterol:PEG-modified lipid → 50:10:38.5:1.5) and containing 5 µg of the indicated mRNA in 50 µl final volume, were injected intramuscularly.
From 4 to 72 hours after RNA-LPN inoculation mice were anaesthetized by inhalation with 4% of isoflurane using a vaporizer. The maintenance of the anaesthesia was performed at 1.5% of isoflurane. Then, D-luciferin (Quimigen, 12507) was injected intraperitoneally at 150 mg/kg, normally ~200 µL of the stock at 15 mg/mL in PBS for a 20 g mouse. Luciferase images were acquired 10 minutes after luciferin inoculation using the IVIS Lumina XRMS Imaging System following manufacturer's instructions.

[2] = RNA encapsulation efficiency of LNPs by Quant-IT Ribogreen; format: physicochemical; details: for Encaps. efficiency (%): LNPs with luciferase mRNA, ionizable lipid:non-cationic lipid:sterol:PEG-modified lipid 50:10:38.5:1.5; for Encaps. efficiency: Table 8, LNP 50:10:38.5:1.5, luciferase mRNA
How it was run: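 LNPs formed by mixing aqueous mRNA into ethanol lipid solution, diluted 1:1 in Tris, dialysed overnight against Tris with 15% sucrose. Encapsulated mRNA measured by Ribogreen fluorescence per kit protocol; LNPs adjusted to 100 µg/ml final mRNA.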

[3] = Size distribution, polydispersity and Z-potential of LNPs by dynamic light scattering (Malvern Zetasizer); format: physicochemical; details: LNPs, standard formulation 50:10:38.5:1.5; DLS
Procedure: The LNP solution was then adjusted to a final concentration of mRNA of 100 µg/ml. Size distribution, polydispersity and Z-potential were measured by dynamic light scattering (DLS) using Malvern Zetasizer Advance Lab Blue Label. RNA encapsulation was assessed by Quant-IT® Ribogreen following the manufacturer's instructions.

[4] = percentage of RNA entrapped in the LNP
[5] = Table 8, mice, intramuscular, 5 µg luciferase mRNA in 50 µl

SMILES	Apparent pKa [1]	Total Flux (Female BALB/c mice; Table 6, in vivo after injection)	Encaps. efficiency (%) [2, 4] [%]	encapsulation efficiency ([2]; Table 6, percentage of RNA entrapped in the LNP, LNP 50:10:38.5:1.5) [%]	P.D.I. [3]	Particle size/ Ø (nm) [3] [nm]	Z Potential (± D.E.) [mV] [3] [mV]	Total Flux (Female BALB/c mice; [5]) [p·s^-1]	Encaps. efficiency [2] [%]
CCCCCCCCC(CCCCCCCC)OC(=O)C(CSCCC(=O)OCCCCCC)CC(=O)NCCCN1CCOCC1 (centres unmarked) [VC-LC-0550]	6.53	3,4·10^7 p·s^-1	26.96	26.96	0.16	173.7	-14.52	–	–
CCCCCCCCCCC(CCCCCCCC)C(=O)NC(CCSCCC(=O)OCC(CCCCCC)CCCCCCCC)C(=O)NCC1CCN(C)CC1 (centres unmarked) [VC-LC-0508]	7.48	–	91.49	–	0.13	152.6	-2.43	1.7E+08	91.49
CCCCCCCCC(CCCCCC)COC(=O)CCSCCC(NC(=O)C(CCCCCC)CCCCCCCC)C(=O)NCC1CCN(C)CC1 (centres unmarked) [VC-LC-0491]	7.07	–	72.06	–	0.17	160.8	-3.40	2.37E+07	72.1
CCCCCCCCOC(=O)CCSCC(CC(=O)NCCCn1ccnc1)C(=O)OC(CCCCCCCC)CCCCCCCC (centres unmarked) [VC-LC-0307]	6.11	–	43.89	–	0.14	178	-15.15	1.47E+08	43.9
CCCCCCCCCCC(CCCCCCCC)C(=O)NC(CCSCCC(=O)OCCCCCC(C)C)C(=O)NCC1CCN(C)CC1 (centres unmarked) [VC-LC-0515]	7.26	–	98.61	–	0.12	141.7	1.90	3.0E+07	98.61
CCCCCCCCC(CCCCCCCC)OC(=O)C(CSCCC(=O)OCC(CC)CCCC)CC(=O)NCCCn1ccnc1 (centres unmarked) [VC-LC-0297]	5.80	–	46.94	–	0.18	193.3	-11.77	2.3E+07	46.9
CCCCCCCCC(CCCCCCCC)OC(=O)C(CSCCC(=O)OCCCCCCCC(C)C)CC(=O)NCCCn1ccnc1 (centres unmarked) [VC-LC-0296]	5.62	–	48.51	–	0.13	175.8	-7.19	4.7E+07	48.5
CCCCCCCCCCCCOC(=O)CCSCCC(C(=O)NC1CCN(C)CC1)C(=O)OC(CCCCCCCC)CCCCCCCC (centres unmarked) [VC-LC-0440]	6.75	–	76.52	–	0.10	167.4	-3.61	2.42E+07	76.5
CCCCCCCCOC(=O)CCSCC(CC(=O)NCCCN1CCOCC1)C(=O)OC(CCCCCCCC)CCCCCCCC (centres unmarked) [VC-LC-0551]	6.51	–	29.06	–	0.15	155.3	-11.66	1.1E+08	29.06
CCCCCCCC/C=C\CCCCCCCCOC(=O)CCSCC(CC(=O)NC1CCN(C)CC1)C(=O)OCC(CCCCCC)CCCCCCCC (centres unmarked) [VC-LC-0539]	6.90	–	85.33	–	0.13	176.7	-1.24	3.6E+07	85.3
CCCCCCCCCCCCOC(=O)CCSCC(CC(=O)NCCCn1ccnc1)C(=O)OC(CCCCCCCC)CCCCCCCC (centres unmarked) [VC-LC-0298]	6.06	–	59.92	–	0.16	190.5	-13.51	7.6E+07	59.92
CCCCCCCC#CCOC(=O)CCSCCC(C(=O)NC1CCN(C)CC1)C(=O)OC(CCCCCCCC)CCCCCCCC (centres unmarked) [VC-LC-0442]	–	–	87.80	–	0.12	171.8	-4.19	2.95E+07	87.8
CCCCCCCCCCCCCOC(=O)CCSCC(CC(=O)NCCCN1CCOCC1)C(=O)OC(CCCCCCCC)CCCCCCCC (centres unmarked) [VC-LC-0540]	–	–	43.65	–	0.11	140.3	-8.47	1.3E+08	43.65
CCCCCCCCCCCCCOC(=O)CCSCCC(NC(=O)C(CCCCCCCC)CCCCCCCCCC)C(=O)NCC1CCN(C)CC1 (centres unmarked) [VC-LC-0507]	–	–	95.15	–	0.13	151.1	-2.76	2.29E+07	95.2
CCCCCCCCC(CCCCCCCC)OC(=O)C(CSCCC(=O)OCCCCCC(C)C)CC(=O)NCCCN1CCOCC1 (centres unmarked) [VC-LC-0548]	–	–	30.22	–	0.17	145.5	-8.82	1.2E+08	30.22
